Laboratory results taken from publication PMC8691691 (ACS Chemical Neuroscience, 2021).
Substitutions are numbered along the chain they refer to. Like-named read-outs stand apart in the source and are kept apart here.

Legend:
Experiment in all cases: [3H]glycine transport by GlyT2 mutant in COS7 cells
Type in all cases: cell-based
[1] = molecular target: T1, GlyT2 G214L mutant (Rattus norvegicus, UniProt P58295, G214L)
T1 construct: expressed in transfected cells; host or cells: COS7
T1 sequence (P58295 1-799 G214L): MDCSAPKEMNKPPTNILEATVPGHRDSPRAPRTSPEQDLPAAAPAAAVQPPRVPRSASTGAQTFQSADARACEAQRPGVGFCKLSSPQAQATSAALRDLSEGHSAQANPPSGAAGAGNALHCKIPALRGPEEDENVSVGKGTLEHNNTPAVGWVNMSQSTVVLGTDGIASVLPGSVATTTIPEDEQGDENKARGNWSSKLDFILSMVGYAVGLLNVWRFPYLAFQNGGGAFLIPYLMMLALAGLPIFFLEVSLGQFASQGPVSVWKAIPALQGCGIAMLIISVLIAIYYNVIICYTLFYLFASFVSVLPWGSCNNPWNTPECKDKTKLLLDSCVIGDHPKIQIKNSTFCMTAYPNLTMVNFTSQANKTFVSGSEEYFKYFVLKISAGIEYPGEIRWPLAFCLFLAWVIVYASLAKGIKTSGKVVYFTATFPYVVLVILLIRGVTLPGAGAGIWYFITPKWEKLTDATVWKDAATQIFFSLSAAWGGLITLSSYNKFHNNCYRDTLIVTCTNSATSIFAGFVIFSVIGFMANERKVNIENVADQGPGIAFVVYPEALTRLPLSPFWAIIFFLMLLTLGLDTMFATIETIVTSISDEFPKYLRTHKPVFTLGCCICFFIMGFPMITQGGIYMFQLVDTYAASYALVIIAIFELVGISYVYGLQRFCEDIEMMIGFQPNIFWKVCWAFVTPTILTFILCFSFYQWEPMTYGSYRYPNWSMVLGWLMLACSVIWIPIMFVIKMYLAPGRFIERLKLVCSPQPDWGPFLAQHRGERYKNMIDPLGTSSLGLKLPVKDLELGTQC
Source text: (§1) To validate the predicted interactions between the inhibitors and GlyT2, we used systematic site-directed mutagenesis to construct substitution mutants of the potential residues involved in ligand binding. […] The GlyT2 residues predicted to interact with the inhibitors through its side chain were replaced by amino acids expected to force the loss of the interaction. In the cases where the interaction occurred through the backbone, the inserted amino acid sought to alter the disposition of the substituted residue to lose the coordination.
(§2) Substitution mutants were generated with the QuikChange II Site-Directed Mutagenesis kit (Agilent Technologies, Santa Clara, CA, USA), using rGlyT2 or rGlyT1 subcloned in pCDNA3.[47] The complete coding region of all of the constructs was sequenced to verify that only the desired mutation had been introduced. […] COS7 cells were grown and transfected using Turbofect Transfection Reagent (Thermo Fisher Scientific, Waltham, MA, USA), following the manufacturer’s protocol (2 μL reagent/μg of DNA). Cells were incubated for 48 h at 37 °C until used.
(§3) At the end of the desired time (usually 10 min), reactions were washed and terminated by aspiration. […] A nonlinear curve fitting method was used to obtain IC50 values using Graphpad Prism software, version 6.0, Graphpad, San Diego, CA, USA.

[2] = molecular target: T2, GlyT2 I285F mutant (Rattus norvegicus, UniProt P58295, I285F)
T2 construct: expressed in transfected cells; host or cells: COS7
T2 sequence (P58295 1-799 I285F): T1 sequence (P58295 1-799 G214L) with L214G, I285F
Source text: as §1, §2, §3

[3] = molecular target: T3, GlyT2 S640C mutant (Rattus norvegicus, UniProt P58295, S640C); settings: read-out: IC50 (Table S1)
T3 construct: expressed in transfected cells; host or cells: COS7
T3 sequence (P58295 1-799 S640C): T1 sequence (P58295 1-799 G214L) with L214G, S640C
Source text: as §1, §2, §3

Row | IC50 ([1]; read-out: IC50 (Table S1)) [nM] | IC50 ([2]; read-out: IC50 (Table S1)) [nM] | SMILES | IC50 [3] [nM] | IC50 [1] [nM] | IC50 [2] [nM]
1 | 38 ± 3 | 91 ± 6 | N[C@@H](COC(c1cccc(F)c1)c1ccccc1OCc1ccccc1)C(=O)O (stereo partly drawn) [ALX1393] | 30 ± 7 | – | –
2 | – | – | COc1cc(C(=O)NCC2(N(C)C)CCCC2)cc(OC)c1OCc1ccccc1 [ORG25543, N-[[1-(dimethylamino)cyclopentyl]methyl]-3,5-dimethoxy-4-(phenylmethoxy)benzamide] | 130 ± 6 | 17 ± 10 | 15 ± 4
